PubChem BioAssay (NCI)
Values joined by “and” are separate entries in the source; they are usually repeats but may differ in a detail not shown here. Equal values may be shown once.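 Step 1: Grow cells in 96-well plates. Step 2: Expose to compound for 48 hours at 5 concentrations. Step 3: Interpolate endpoints linearly; if unreached, use highest concentration. Abbreviation: GI50, concentration required for 50% inhibition of growth. TGI is the concentration that stops growth completely.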 *1 amine or outer side, *2 acyl side, *3 side chain or, on linkers, in order; H or OH if unused. Where a SMILES comes first, the peptide text is derived from it. [ ]: non-standard residue; d: D form. The star is where a group is joined. X31 = CC(=O)N(C)SCC(N[*:1])C(=O)[*:2]; Cbz = O=C(OCc1ccccc1)*; Bn = c1ccc(C*)cc1; For = O=C*

What was measured:
Assay in all cases: growth of human tumour cells (NCI), 48 h
[1] = tested on: EKVX NSCLC
[2] = tested on: MOLT-4 leukemia
[3] = tested on: UACC-62 melanoma
[4] = tested on: HCT-15 colon
[5] = tested on: SNB-19 CNS
[6] = tested on: SR leukemia
[7] = tested on: HS 578T breast
[8] = tested on: MALME-3M melanoma
[9] = tested on: OVCAR-3 ovarian
[10] = tested on: NCI-H522 lung
[11] = tested on: MCF7 breast
[12] = tested on: IGROV1 ovarian
[13] = tested on: ACHN renal

Row | SMILES | TGI [1] | TGI [2] | TGI [3] | TGI [4] | TGI [5] | TGI [6] | TGI [7] | TGI [8] | TGI [9] | TGI [10] | TGI [11] | TGI [12] | TGI [13] | GI50 [2] | GI50 [3] | GI50 [4] | GI50 [8] | GI50 [9] | GI50 [10] | GI50 [13]
1 | CCOC(=O)P(=O)(O)c1ccc(N(C)Cc2ccccc2)cc1 | > 100 µM | > 100 µM | > 100 µM | > 100 µM | > 100 µM | > 100 µM | > 100 µM | > 100 µM | > 100 µM | > 100 µM | > 100 µM | > 100 µM | > 100 µM |  |  |  |  |  |  | 
2 | O=C(ON=C1c2ccccc2C(Br)C(Br)c2ccccc21)c1cc([N+](=O)[O-])cc([N+](=O)[O-])c1 (stereo not drawn) | 59.8 µM | 45.1 µM | 38.5 µM | 42.7 µM | 56.8 µM | 26.9 µM | 61.6 µM | 33 µM | 35.5 µM | 14.3 µM | 48 µM | 26.6 µM | 45 µM |  |  |  |  |  |  | 
3 | N#Cc1c(-c2ccccc2)cc(-c2ccccc2)n(C2OC(CO)C(O)C(O)C2O)c1=S (stereo not drawn) | > 100 µM | 51.7 µM and 85.8 µM | 33.9 µM and > 100 µM | > 100 µM | > 100 µM | > 100 µM | 64.4 µM and > 100 µM | 62.5 µM and > 100 µM | 34.3 µM and > 100 µM | 35.6 µM and > 100 µM | 78 µM and > 100 µM | > 100 µM | > 100 µM | 11.3 µM and 23.5 µM | 15.9 µM and 35.5 µM | 31 µM and 80.8 µM | 24.9 µM and > 100 µM | 18 µM and 73 µM | 17.1 µM and 38.9 µM | 30.7 µM and 66.6 µM
4 | O=C1/C(=C/c2cccc(F)c2)CCCc2ccccc21 | 28.6 µM | 43.6 µM | 28.6 µM | 29.3 µM | 29.4 µM | 32.8 µM | 28.5 µM | 23.8 µM | 28.6 µM | 25.5 µM | 30.5 µM | 24.6 µM | 33.1 µM |  |  |  |  |  |  | 
5 | COC(=O)C1(C(=O)OC)Cc2ccc(OC)cc2C2=C1C(=O)c1ccccc1C2=O | 19.1 µM | 3.97 µM | 4.37 µM | 25.2 µM | 33.4 µM | > 100 µM | 50.4 µM | 26.3 µM | 3.69 µM | 8.89 µM | 7.3 µM | 8.53 µM | 15.1 µM |  |  |  |  |  |  | 
6 | CC(=O)N(C)SCC(NC(=O)C(Cc1ccccc1)NC(=O)OCc1ccccc1)C(=O)NC(Cc1ccccc1)C(=O)NC(Cc1cn(C=O)c2ccccc12)C(=O)NC(CCCCNC(=O)OCc1ccccc1)C(=O)NC(C(=O)NC(CSN(C)C(C)=O)C(=O)NC(C(N)=O)C(C)OCc1ccccc1)C(C)OCc1ccccc1 (stereo not drawn) (Cbz-F[X31]FW(For)K(Cbz)T(Bn)[X31]T(Bn)-NH2; configuration not given here) | > 100 µM | > 100 µM | > 100 µM | > 100 µM | 51.7 µM | > 100 µM | > 100 µM | > 100 µM | > 100 µM | > 100 µM | > 100 µM | > 100 µM | > 100 µM |  |  |  |  |  |  | 
7 | Cc1cc2c(cc1-c1cc3c(cc1C)C(C(C)C)=C(O)C(=O)/C3=C\Nc1c3ccccc3nc3ccccc13)/C(=C/Nc1c3ccccc3nc3ccccc13)C(=O)C(O)=C2C(C)C | 5.67 µM | 16 µM | 14.6 µM | 14.9 µM | 13.6 µM | 18.4 µM | 21 µM | 10.1 µM | 14.5 µM | 2.97 µM | 11 µM | 11.1 µM | 5.91 µM |  |  |  |  |  |  | 
8 | O=C1/C(=C/c2cccc(Br)c2)CCc2ccccc21 | 32.7 µM | 42.1 µM | 22.4 µM | 24.1 µM | 27.9 µM | 18.4 µM | 24.8 µM | 26 µM | 28.6 µM | 24.3 µM | 14.9 µM | 24.7 µM | 27.7 µM |  |  |  |  |  |  | 
9 | C=CCN1C(=O)/C(=C/c2ccco2)N=C1SC/C=C/C | > 100 µM | 54.7 µM | 73.7 µM | > 100 µM | > 100 µM | 52.9 µM | > 100 µM | > 100 µM | > 100 µM | > 100 µM | 65.1 µM | > 100 µM | > 100 µM |  |  |  |  |  |  | 
10 | CC(C)Cn1cnc2c(NCC(C)O)nc3ccccc3c21 (stereo not drawn) | > 100 µM | > 100 µM | > 100 µM | > 100 µM | > 100 µM | > 100 µM | > 100 µM | > 100 µM | > 100 µM | > 100 µM | > 100 µM | > 100 µM | > 100 µM |  |  |  |  |  |  | 
11 | COC1(OC)c2no[n+]([O-])c2CCC1O (stereo not drawn) | > 100 µM | > 100 µM | > 100 µM | > 100 µM | > 100 µM | > 100 µM | > 100 µM | > 100 µM | > 100 µM | > 100 µM | > 100 µM | > 100 µM | > 100 µM |  |  |  |  |  |  | 
12 | NC(N)=N/N=C/c1c(-c2ccc(Cl)cc2)nc2sccn12 | 31.2 µM | 5.08 µM | 3.39 µM | 6.36 µM | 20.7 µM | 13.2 µM | 37.6 µM | 4.95 µM | 3.6 µM | 3.19 µM | 3.48 µM | 4.24 µM | 2.82 µM |  |  |  |  |  |  | 
